Assay results from the supplement of paper PMC4862054.

The compounds below were run on CAL-148. Settings: 72 h.
Procedure: (§1)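 Drug sensitivity and resistance testing (DSRT) of breast cancer cell lines in 384-well plates, 5 concentrations in 10-fold dilutions over a compound-specific 10,000-fold range. After 72 h, cytotoxicity was read by CellTox Green fluorescence and viability by CellTiter-Glo luminescence (multiplexed), normalised to DMSO and benzethonium chloride controls. EC50 is the inflection point of the fitted dose-response curve (bottom asymptote free, so it can be relative for partial curves) and is censored at the highest tested concentration. Rows with DSS 0 (no meaningful response) were excluded.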

Point of comparison: CCCCC(=O)OCC(=O)[C@]1(O)Cc2c(O)c3c(c(O)c2[C@@H](O[C@H]2C[C@H](NC(=O)C(F)(F)F)[C@H](O)[C@H](C)O2)C1)C(=O)c1c(OC)cccc1C3=O [Valrubicin], “EC50, CellTox Green” value 0.0466 µM. Against it:
- Cc1cnc(NC(=O)Nc2cc(Br)c(C)cc2OC[C@@H]2CNCCO2)cn1 [Rabusertib] — higher, > 1 µM
- Nc1ccccc1NC(=O)c1ccc(CNC(=O)OCc2cccnc2)cc1 [Entinostat] — 89-fold higher, 4.16 µM

The compounds below were run on BT-474. Settings: 72 h.
Procedure: as §1

Point of comparison: C=CC(=O)Nc1cc2c(Nc3ccc(F)c(Cl)c3)ncnc2cc1OCCCN1CCOCC1 [Canertinib], “EC50, CellTox Green” value 9.8 µM. Against it:
- C=CCc1cccc(/C=N/NC(=O)CN2CCN(Cc3ccccc3)CC2)c1O [PAC-1] — 2.8-fold lower, 3.52 µM

What follows are compounds tested on BT-549. Settings: 72 h.
Procedure: as §1

Point of comparison: C=CCc1cccc(/C=N/NC(=O)CN2CCN(Cc3ccccc3)CC2)c1O [PAC-1], “EC50, CellTox Green” value 1.19 µM. Against it:
- CC[C@H](C)C(=O)O[C@H]1C[C@H](O)C=C2C=C[C@H](C)[C@H](CC[C@@H](O)C[C@@H](O)CC(=O)O)[C@H]21 [Pravastatin] — higher, > 10 µM
- C=CC(=O)Nc1cc2c(Nc3ccc(F)c(Cl)c3)ncnc2cc1OCCCN1CCOCC1 [Canertinib] — 7.6-fold higher, 9.07 µM

These compounds were tested on HCC1937. Settings: 72 h.
Procedure: as §1

In the case of O=C(/C=C/c1cccnc1)NCCCCC1CCN(C(=O)c2ccccc2)CC1 [Daporinad], the “EC50, CellTox Green” value is reported as 0.0241 µM.

Each compound was assayed on CAL-51. Settings: 72 h.
Procedure: as §1

Point of comparison: CC[C@@H]1C(=O)N(C)c2cnc(Nc3ccc(C(=O)NC4CCN(C)CC4)cc3OC)nc2N1C1CCCC1 [BI 2536], “EC50, CellTox Green” value 0.00572 µM. Against it:
- C=CCc1cccc(/C=N/NC(=O)CN2CCN(Cc3ccccc3)CC2)c1O [PAC-1] — 72-fold higher, 0.413 µM
- CC[C@H](C)C(=O)O[C@H]1C[C@H](O)C=C2C=C[C@H](C)[C@H](CC[C@@H](O)C[C@@H](O)CC(=O)O)[C@H]21 [Pravastatin] — 590-fold higher, 3.38 µM
- CCCS(=O)(=O)Nc1ccc(F)c(C(=O)c2c[nH]c3ncc(-c4ccc(Cl)cc4)cc23)c1F [Vemurafenib] — 3.8-fold higher, 0.0219 µM
- Nc1ccccc1NC(=O)c1ccc(CNC(=O)OCc2cccnc2)cc1 [Entinostat] — 200-fold higher, 1.14 µM
- C=CC(=O)Nc1cc2c(Nc3ccc(F)c(Cl)c3)ncnc2cc1OCCCN1CCOCC1 [Canertinib] — 530-fold higher, 3.01 µM
- CCCCC(=O)OCC(=O)[C@]1(O)Cc2c(O)c3c(c(O)c2[C@@H](O[C@H]2C[C@H](NC(=O)C(F)(F)F)[C@H](O)[C@H](C)O2)C1)C(=O)c1c(OC)cccc1C3=O [Valrubicin] — 4.6-fold higher, 0.0261 µM

The compounds below were run on MDA-MB-436. Settings: 72 h.
Procedure: as §1

Point of comparison: Nc1ccccc1NC(=O)c1ccc(CNC(=O)OCc2cccnc2)cc1 [Entinostat], “EC50, CellTox Green” value 6.22 µM. Against it:
- CC[C@H](C)C(=O)O[C@H]1C[C@H](O)C=C2C=C[C@H](C)[C@H](CC[C@@H](O)C[C@@H](O)CC(=O)O)[C@H]21 [Pravastatin] — 400-fold lower, 0.0157 µM
- CCCCC(=O)OCC(=O)[C@]1(O)Cc2c(O)c3c(c(O)c2[C@@H](O[C@H]2C[C@H](NC(=O)C(F)(F)F)[C@H](O)[C@H](C)O2)C1)C(=O)c1c(OC)cccc1C3=O [Valrubicin] — not separable, > 5 µM

Each compound was assayed on CAL-85-1. Settings: 72 h.
Outline: (§2)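 Breast cancer cell lines in 20 µl suspension were seeded onto 384-well plates that already held compound dissolved in 5 µl medium and were incubated for 72 h. Viability was measured by adding 2.5 µl CellTiter-Blue for 2 h at 37 °C and reading fluorescence at 560/590 nm. Each plate was normalised to vehicle and a positive kill control and checked by Z'-factor. EC50 was taken from a fitted percent-inhibition dose-response curve, censored at the highest concentration, and rows with a drug sensitivity score of zero were removed.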

Point of comparison: CCN(CC)CCCC(C)Nc1c2ccc(Cl)cc2nc2ccc(OC)cc12 (configuration not stated) [Mepacrine], “EC50, CellTiter-Blue viability” value 1.8 µM. Against it:
- O=C(/C=C/c1cccnc1)NCCCCC1CCN(C(=O)c2ccccc2)CC1 [FK-866] — 70-fold lower, 0.0257 µM
- CC[C@@H]1C(=O)N(C)c2cnc(Nc3ccc(C(=O)NC4CCN(C)CC4)cc3OC)nc2N1C1CCCC1 [BI 2536] — 630-fold lower, 0.00285 µM
- CCCS(=O)(=O)Nc1ccc(F)c(C(=O)c2c[nH]c3ncc(-c4ccc(Cl)cc4)cc23)c1F [Vemurafenib] — higher, > 10 µM
- Nc1nc2[nH]cc(CCc3ccc(C(=O)N[C@@H](CCC(=O)O)C(=O)O)cc3)c2c(=O)[nH]1 [Pemetrexed] — 2.1-fold lower, 0.878 µM
- C=CC(=O)N1CCC[C@@H](n2nc(-c3ccc(Oc4ccccc4)cc3)c3c(N)ncnc32)C1 — 2.1-fold lower, 0.849 µM
- CC(=O)Nc1cccc(-n2c(=O)n(C3CC3)c(=O)c3c(Nc4ccc(I)cc4F)n(C)c(=O)c(C)c32)c1 — 93-fold lower, 0.0194 µM
- Nc1ccccc1NC(=O)c1ccc(CNC(=O)OCc2cccnc2)cc1 [Entinostat] — 1.5-fold higher, 2.7 µM
- C=CC(=O)Nc1cc2c(Nc3ccc(F)c(Cl)c3)ncnc2cc1OCCCN1CCOCC1 [Canertinib] — 5-fold lower, 0.361 µM
- CCCCC(=O)OCC(=O)[C@]1(O)Cc2c(O)c3c(c(O)c2[C@@H](O[C@H]2C[C@H](NC(=O)C(F)(F)F)[C@H](O)[C@H](C)O2)C1)C(=O)c1c(OC)cccc1C3=O [Valrubicin] — 1.5-fold lower, 1.17 µM

Each compound was assayed on DU-4475. Settings: 72 h.
Outline: as §2

Point of comparison: CC(=O)Nc1cccc(-n2c(=O)n(C3CC3)c(=O)c3c(Nc4ccc(I)cc4F)n(C)c(=O)c(C)c32)c1, “EC50, CellTiter-Blue viability” value 0.00091 µM. Against it:
- O=C(/C=C/c1cccnc1)NCCCCC1CCN(C(=O)c2ccccc2)CC1 [FK-866] — 22-fold higher, 0.0201 µM
- CC[C@@H]1C(=O)N(C)c2cnc(Nc3ccc(C(=O)NC4CCN(C)CC4)cc3OC)nc2N1C1CCCC1 [BI 2536] — 6.6-fold higher, 0.00601 µM
- CCCS(=O)(=O)Nc1ccc(F)c(C(=O)c2c[nH]c3ncc(-c4ccc(Cl)cc4)cc23)c1F [Vemurafenib] — 320-fold higher, 0.295 µM
- O=C(O)C(=O)O.[NH-][C@@H]1CCCC[C@H]1[NH-].[Pt+2] [Oxaliplatin] — 10000-fold higher, 9.22 µM
- CCN(CC)CCCC(C)Nc1c2ccc(Cl)cc2nc2ccc(OC)cc12 (configuration not stated) [Mepacrine] — 1800-fold higher, 1.6 µM
- Nc1ccccc1NC(=O)c1ccc(CNC(=O)OCc2cccnc2)cc1 [Entinostat] — 6300-fold higher, 5.7 µM
- C=CC(=O)Nc1cc2c(Nc3ccc(F)c(Cl)c3)ncnc2cc1OCCCN1CCOCC1 [Canertinib] — 6600-fold higher, 5.98 µM
- CC[C@H](Nc1ncnc2[nH]cnc12)c1nc2cccc(F)c2c(=O)n1-c1ccccc1 [CAL-101] — 6100-fold higher, 5.56 µM
- CCCCC(=O)OCC(=O)[C@]1(O)Cc2c(O)c3c(c(O)c2[C@@H](O[C@H]2C[C@H](NC(=O)C(F)(F)F)[C@H](O)[C@H](C)O2)C1)C(=O)c1c(OC)cccc1C3=O [Valrubicin] — 72-fold higher, 0.0655 µM

Each compound was assayed on HDQ-P1. Settings: 72 h.
Outline: as §2

Point of comparison: O=C(/C=C/c1cccnc1)NCCCCC1CCN(C(=O)c2ccccc2)CC1 [FK-866], “EC50, CellTiter-Blue viability” value 0.0213 µM. Against it:
- CC[C@@H]1C(=O)N(C)c2cnc(Nc3ccc(C(=O)NC4CCN(C)CC4)cc3OC)nc2N1C1CCCC1 [BI 2536] — higher, > 1 µM
- CCCS(=O)(=O)Nc1ccc(F)c(C(=O)c2c[nH]c3ncc(-c4ccc(Cl)cc4)cc23)c1F [Vemurafenib] — 170-fold higher, 3.68 µM
